Results: PubChem BioAssay AID192 (DTP/NCI, 2004)
“And” between values parts separate entries of the source, which are not always exact repeats. Equal values may be shown once. Toxic doses and inconclusive results are not listed.

System: BDF1 mice, B16 melanoma ip, median survival T/C
Test: NCI In Vivo Anticancer Drug Screen. Data for tumor model B16 Melanoma (intraperitoneal) in B6D2F1 (BDF1) mice
Details: endpoint: median survival time, higher = longer survival
How it was run: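 Mice with transplantable tumors; drug vs vehicle groups; endpoint survival or tumor size; value = T/C.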

[1] = dose: 100.0 mg/kg/injection, schedule: Q01DX009 (ip), vehicle: Klucel (hydroxypropylcellulose) (HPC)
[2] = dose: 200.0 mg/kg/injection, schedule: Q01DX009 (ip), vehicle: Klucel (hydroxypropylcellulose) (HPC)
[3] = dose: 3.12 mg/kg/injection, schedule: Q01DX009 (ip), vehicle: Klucel (hydroxypropylcellulose) (HPC)
[4] = dose: 6.25 mg/kg/injection, schedule: Q01DX009 (ip), vehicle: Klucel (hydroxypropylcellulose) (HPC)
[5] = dose: 12.5 mg/kg/injection, schedule: Q01DX009 (ip), vehicle: Klucel (hydroxypropylcellulose) (HPC)
[6] = dose: 100.0 mg/kg/injection, schedule: Q01DX009 (ip), vehicle: saline
[7] = dose: 200.0 mg/kg/injection, schedule: Q01DX009 (ip), vehicle: saline
[8] = dose: 400.0 mg/kg/injection, schedule: Q01DX009 (ip), vehicle: saline
[9] = dose: 12.5 mg/kg/injection, schedule: Q01DX009 (ip), vehicle: saline
[10] = dose: 25.0 mg/kg/injection, schedule: Q01DX009 (ip), vehicle: saline with Tween-80
[11] = dose: 25.0 mg/kg/injection, schedule: Q01DX009 (ip), vehicle: saline
[12] = dose: 50.0 mg/kg/injection, schedule: Q01DX009 (ip), vehicle: saline with Tween-80
[13] = dose: 50.0 mg/kg/injection, schedule: Q01DX009 (ip), vehicle: saline
[14] = dose: 100.0 mg/kg/injection, schedule: Q01DX009 (ip), vehicle: saline with Tween-80
[15] = dose: 200.0 mg/kg/injection, schedule: Q01DX009 (ip), vehicle: saline with Tween-80
[16] = dose: 400.0 mg/kg/injection, schedule: Q01DX009 (ip), vehicle: saline with Tween-80

C=C1C(=O)OC2CC3(C)CC(O)C(OC(C)=O)C(=C)C3CC12 (stereo not drawn)
T/C (dose: 2.5 mg/kg/injection, schedule: Q01DX009 (ip), vehicle: saline): 109 % of control | T/C (dose: 5.0 mg/kg/injection, schedule: Q01DX009 (ip), vehicle: saline): 104 % of control | T/C (dose: 10.0 mg/kg/injection, schedule: Q01DX009 (ip), vehicle: saline): 106 % of control

c1cc2cc3c(cc2cc1CC1=NCCc2cc4c(cc21)OCO4)OCO3
T/C (dose: 150.0 mg/kg/injection, schedule: Q01DX009 (ip), vehicle: other): 102 % of control

CCCCC(CC)C(O)C(C)C(C)O (stereo not drawn)
T/C [1]: 97 % of control | T/C [2]: 87 % of control

CCC(C)(C)c1ccc(O)c(C(C)(C)CC)c1
T/C [1]: 93 % of control | T/C [2]: 106 % of control | T/C (dose: 400.0 mg/kg/injection, schedule: Q01DX009 (ip), vehicle: Klucel (hydroxypropylcellulose) (HPC)): 106 % of control

CNNCc1ccc(C(=O)NC(C)C)cc1
T/C (dose: 37.5 mg/kg/injection, schedule: Q01DX009 (ip), vehicle: water): 121 % of control | T/C (dose: 40.0 mg/kg/injection, schedule: Q01DX009 (ip), vehicle: saline with Tween-80): 108 % of control | T/C (dose: 54.0 mg/kg/injection, schedule: Q01DX009 (ip), vehicle: saline): 123 % of control | T/C (dose: 90.0 mg/kg/injection, schedule: Q01DX009 (ip), vehicle: saline): 120 % of control | T/C (dose: 250.0 mg/kg/injection, schedule: Q01DX009 (ip), vehicle: saline): 123 % of control | T/C (dose: 320.0 mg/kg/injection, schedule: Q01DX009 (ip), vehicle: saline with Tween-80): 98 % of control

NC(=O)c1[nH]nc(C2OC(CO)C(O)C2O)c1O (stereo not drawn)
T/C (dose: 0.08 mg/kg/injection, schedule: Q01DX009 (ip), vehicle: saline): 100 % of control | T/C (dose: 0.12 mg/kg/injection, schedule: Q01DX009 (ip), vehicle: saline): 110 % of control | T/C (dose: 0.16 mg/kg/injection, schedule: Q01DX009 (ip), vehicle: saline): 111 % of control | T/C (dose: 0.31 mg/kg/injection, schedule: Q01DX009 (ip), vehicle: saline): 111 % of control | T/C (dose: 0.5 mg/kg/injection, schedule: Q01DX009 (ip), vehicle: saline): 115 % of control | T/C (dose: 0.62 mg/kg/injection, schedule: Q01DX009 (ip), vehicle: saline): 111 % of control | T/C (dose: 0.67 mg/kg/injection, schedule: Q01DX009 (ip), vehicle: saline): 123 % of control | T/C (dose: 1.25 mg/kg/injection, schedule: Q01DX009 (ip), vehicle: saline): 94 % of control | T/C (dose: 2.16 mg/kg/injection, schedule: Q01DX004 (ip), vehicle: saline): 113 % of control | T/C (dose: 3.6 mg/kg/injection, schedule: Q01DX004 (ip), vehicle: saline): 112 % of control | T/C (dose: 6.0 mg/kg/injection, schedule: Q01DX004 (ip), vehicle: saline): 109 % of control | T/C (dose: 10.0 mg/kg/injection, schedule: Q01DX004 (ip), vehicle: saline): 44 % of control

O=C1C=C(c2ccccc2)C(=O)C=C1c1ccccc1
T/C (dose: 6.0 mg/kg/injection, schedule: Q04DX003 (ip), vehicle: gum acacia): 100 % of control | T/C (dose: 12.0 mg/kg/injection, schedule: Q04DX003 (ip), vehicle: gum acacia): 91 % of control | T/C (dose: 25.0 mg/kg/injection, schedule: Q04DX003 (ip), vehicle: gum acacia): 92 % of control and 93 % of control

COc1cccc2c1C(=O)c1c(O)c3c(c(O)c1C2=O)CC(O)(C(C)=O)CC3OC1CC([N+](C)(C)C)C(O)C(C)O1 (stereo not drawn)
T/C (dose: 1.56 mg/kg/injection, schedule: Q01DX009 (ip), vehicle: water): 110 % of control | T/C (dose: 3.13 mg/kg/injection, schedule: Q01DX009 (ip), vehicle: water): 107 % of control | T/C (dose: 6.25 mg/kg/injection, schedule: Q01DX009 (ip), vehicle: water): 98 % of control | T/C (dose: 12.5 mg/kg/injection, schedule: Q01DX009 (ip), vehicle: water): 110 % of control | T/C (dose: 25.0 mg/kg/injection, schedule: Q01DX009 (ip), vehicle: water): 106 % of control

C[N+](C)(C)c1cc2c(nn1)Nc1ccccc1S2
T/C [3]: 101 % of control | T/C [4]: 98 % of control | T/C [5]: 101 % of control | T/C (dose: 25.0 mg/kg/injection, schedule: Q01DX009 (ip), vehicle: Klucel (hydroxypropylcellulose) (HPC)): 101 % of control | T/C (dose: 50.0 mg/kg/injection, schedule: Q01DX009 (ip), vehicle: Klucel (hydroxypropylcellulose) (HPC)): 102 % of control | T/C [1]: 89 % of control

CCN(C=O)CC
T/C [6]: 117 % of control | T/C [7]: 115 % of control | T/C [8]: 107 % of control

CC(=O)OC1C(C)OC(OC(=O)C2CCC3C(C2)OC2(CC(OC(=O)/C=C/c4ccccc4)C(C)CO2)C32CO2)C(OC2OC(C)C(O)C(OC(C)=O)C2O)C1O (stereo not drawn)
T/C (dose: 6.0 mg/kg/injection, schedule: Q01DX009 (ip), vehicle: saline + alcohol): 152 % of control | T/C (dose: 12.0 mg/kg/injection, schedule: Q01DX009 (ip), vehicle: saline + alcohol): 186 % of control | T/C (dose: 24.0 mg/kg/injection, schedule: Q01DX009 (ip), vehicle: saline + alcohol): 205 % of control | T/C (dose: 48.0 mg/kg/injection, schedule: Q01DX009 (ip), vehicle: saline + alcohol): 193 % of control

ClCC[N+]12CC[N+](CCCl)(CC1)C2
T/C (dose: 12.5 mg/kg/injection, schedule: Q01DX009 (ip), vehicle: saline with Tween-80): 95 % of control and 100 % of control | T/C [9]: 112 % of control and 95 % of control | T/C [10]: 104 % of control | T/C [11]: 109 % of control and 105 % of control | T/C [12]: 110 % of control and 116 % of control | T/C [13]: 124 % of control and 101 % of control | T/C [6]: 101 % of control | T/C [7]: 100 % of control | T/C [8]: 107 % of control

CCC(CC)(COC(N)=O)COC(N)=O
T/C (dose: 0.78 mg/kg/injection, schedule: Q01DX009 (ip), vehicle: Klucel (hydroxypropylcellulose) (HPC)): 89 % of control | T/C (dose: 1.56 mg/kg/injection, schedule: Q01DX009 (ip), vehicle: Klucel (hydroxypropylcellulose) (HPC)): 93 % of control | T/C [3]: 95 % of control | T/C [4]: 97 % of control | T/C [5]: 86 % of control

OCCN1CCC2(CC1)SSC1(CCN(CCO)CC1)S2
T/C [6]: 117 % of control | T/C [7]: 112 % of control

O=S(=O)(O)O.[Ga]
T/C [9]: 101 % of control | T/C [11]: 94 % of control | T/C [13]: 91 % of control

O=Nc1c(N=O)c(N=O)c(N=O)c(N=O)c1N=O
T/C (dose: 1.25 mg/kg/injection, schedule: Q01DX009 (ip), vehicle: saline with Tween-80): 108 % of control | T/C (dose: 2.5 mg/kg/injection, schedule: Q01DX009 (ip), vehicle: saline with Tween-80): 105 % of control | T/C (dose: 5.0 mg/kg/injection, schedule: Q01DX009 (ip), vehicle: saline with Tween-80): 88 % of control and 100 % of control | T/C (dose: 10.0 mg/kg/injection, schedule: Q01DX009 (ip), vehicle: saline with Tween-80): 104 % of control | T/C (dose: 20.0 mg/kg/injection, schedule: Q01DX009 (ip), vehicle: saline with Tween-80): 87 % of control

C[C@H]1[C@H](O)[C@H]2[C@@H](CCC3=CC(=O)CC[C@@]32C)[C@@H]2CC[C@H](O)[C@@]12C
T/C [14]: 94 % of control | T/C [15]: 100 % of control

CC(=O)Oc1cccc(C#N)c1
T/C [14]: 108 % of control | T/C [15]: 112 % of control | T/C [16]: 91 % of control

CSc1nc(NC(C)C)nc(NC(C)C)n1
T/C [10]: 102 % of control | T/C [12]: 92 % of control | T/C [14]: 102 % of control

CC(=O)C(C)C(C)=O
T/C [14]: 88 % of control | T/C [15]: 90 % of control | T/C [16]: 91 % of control
